Experiments:
[1] = target: T1, Calcitonin-gene-related peptide receptor, CALCRL/RAMP1 (Homo sapiens, UniProt O60894+Q16602); assay: Displacement of [125I]CGRP from human CL receptor in RAMP1 membranes; assay type: cell membranes
[2] = target: T1, Calcitonin-gene-related peptide receptor, CALCRL/RAMP1; assay: Antagonist activity at human CGRP receptor in E10 cells assessed as inhibition of cAMP production; assay type: functional, cell-based
[3] = Clearance in rat at 10 mg/kg, po; assay type: ADME, organism-based; set-up: dose 10 mg/kg, route oral; conditions: in vivo
[4] = Bioavailability in rat at 10 mg/kg, po; assay type: ADME, organism-based; conditions: in vivo
[5] = target: T1, Calcitonin-gene-related peptide receptor, CALCRL/RAMP1; assay: Displacement of [125I]CGRP from human CL receptor in RAMP1 membranes at 100 uM; assay type: cell membranes

T1 sequence (O60894 whole entry): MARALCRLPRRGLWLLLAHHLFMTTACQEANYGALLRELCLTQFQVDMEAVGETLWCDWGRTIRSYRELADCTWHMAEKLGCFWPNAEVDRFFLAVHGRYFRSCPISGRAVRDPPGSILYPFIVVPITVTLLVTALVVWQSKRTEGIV
T1 sequence (Q16602 whole entry): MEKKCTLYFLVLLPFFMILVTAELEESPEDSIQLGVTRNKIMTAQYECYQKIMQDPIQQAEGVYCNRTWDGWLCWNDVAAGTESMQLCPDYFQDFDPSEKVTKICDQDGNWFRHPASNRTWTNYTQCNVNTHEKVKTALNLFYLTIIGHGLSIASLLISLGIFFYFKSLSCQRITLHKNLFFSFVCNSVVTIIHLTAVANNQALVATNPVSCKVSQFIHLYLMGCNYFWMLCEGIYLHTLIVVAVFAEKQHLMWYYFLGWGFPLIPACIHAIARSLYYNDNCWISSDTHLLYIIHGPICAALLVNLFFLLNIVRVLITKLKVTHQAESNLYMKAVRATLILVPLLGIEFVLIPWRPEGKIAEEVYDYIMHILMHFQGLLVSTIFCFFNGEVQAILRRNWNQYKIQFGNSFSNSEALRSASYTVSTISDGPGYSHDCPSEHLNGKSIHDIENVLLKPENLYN

| SMILES | Ki [1] | IC50 [2] | CL/F [3] | bioavailability [4] | Activity [5] |
| --- | --- | --- | --- | --- | --- |
| O=C(N[C@H]1CCCCN(Cc2ccccc2)C1=O)N1CCC(N2Cc3ccccc3NC2=O)CC1 | 11100 nM | – | – | – | – |
| O=C(NC1CC(c2ccccc2)CCN(CC2CC2)C1=O)N1CCC(n2nc(-c3ccccc3)[nH]c2=O)CC1 (racemic; 28) | 266 nM | 488 nM | – | – | – |
| CC(C)(C)OC(=O)CN1C(=O)C(NC(=O)N2CCC(N3Cc4ccccc4NC3=O)CC2)CCCC1c1ccccc1 (racemic; 13) | 1990 nM | 2120 nM | – | – | – |
| CC(C)(C)OC(=O)CN1C(=O)[C@H](NC(=O)N2CCC(N3Cc4ccccc4NC3=O)CC2)CCC[C@@H]1c1ccccc1 | 934 nM | – | – | – | – |
| CC(C)N1C(=O)[C@H](NC(=O)N2CCC(N3Cc4ccccc4NC3=O)CC2)N=C(c2ccccc2)c2ccccc21 | 55 nM | 65 nM | – | – | – |
| O=C(NC1CC(c2ccccc2)CCN(CC2CC2)C1=O)N1CCC(n2nc(-c3ccccc3)[nH]c2=O)CC1 (racemic; 27) | 544 nM | 3820 nM | – | – | – |
| CC(C)(C)OC(=O)CN1C(=O)C(NC(=O)N2CCC(N3Cc4ccccc4NC3=O)CC2)CCCC1c1ccccc1 (racemic; 12) | 17000 nM | – | – | – | – |
| O=C(NC1CC(c2ccccc2)CCN(CC2CC2)C1=O)N1CCC(n2cc(-c3ccccc3)[nH]c2=O)CC1 (racemic; 30) | 17 nM | 141 nM | – | – | – |
| CC(C)(C)OC(=O)CN1C(=O)[C@@H](NC(=O)N2CCC(N3Cc4ccccc4NC3=O)CC2)CCC[C@H]1c1ccccc1 | > 10000 nM | 471 nM | – | – | – |
| O=C(NC1CC(c2ccccc2)CCN(CC2CC2)C1=O)N1CCC(n2cc(-c3ccccc3)[nH]c2=O)CC1 (racemic; 29) | 35 nM | 133 nM | – | – | – |
| O=C(N[C@@H]1CCCCN(CC2CC2)C1=O)N1CCC(N2Cc3ccccc3NC2=O)CC1 | 7800 nM | 2400 nM | – | – | – |
| CC(C)N1C(=O)C(NC(=O)N2CCC(N3Cc4ccccc4NC3=O)CC2)CCc2ccccc21 (configuration not stated) | 3700 nM | 3100 nM | – | – | – |

Further lines, results first:

| Ki [1] | IC50 [2] | CL/F [3] | bioavailability [4] | Activity [5] | SMILES |
| --- | --- | --- | --- | --- | --- |
| 689 nM | 408 nM | – | – | – | O=C(N[C@@H]1CCC[C@H](c2ccccc2)N(CC2CC2)C1=O)N1CCC(N2Cc3ccccc3NC2=O)CC1 |
| 25 nM | 36 nM | – | – | – | O=C(N[C@@H]1CC[C@@H](c2ccccc2)CN(CC2CC2)C1=O)N1CCC(N2Cc3ccccc3NC2=O)CC1 |
| 5830 nM | 6630 nM | – | – | – | O=C(N[C@H]1CC[C@H](c2ccccc2)CN(CC2CC2)C1=O)N1CCC(N2Cc3ccccc3NC2=O)CC1 |
| 1800 nM | – | – | – | – | O=C(N[C@@H]1CCCCN(Cc2ccccc2)C1=O)N1CCC(N2Cc3ccccc3NC2=O)CC1 |
| 2 nM | 4 nM | 36 mL/min/kg | 27% | – | O=C(N[C@@H]1CC[C@@H](c2ccccc2)CN(CC2CC2)C1=O)N1CCC(n2cc(-c3ccccc3)[nH]c2=O)CC1 |
| 31 nM | 54 nM | – | – | – | O=C(NC1CCC(c2ccccc2)CN(CC2CC2)C1=O)N1CCC(N2Cc3ccccc3NC2=O)CC1 (racemic; 18) |
| 29 nM | 32 nM | – | – | – | O=C(N[C@@H]1CC[C@@H](c2ccccc2)CN(CC2CC2)C1=O)N1CCC(N2CCc3ccccc3NC2=O)CC1 |
| 695 nM | 778 nM | – | – | – | O=C(NC1CCC(c2ccccc2)CN(CC2CC2)C1=O)N1CCC(N2Cc3ccccc3NC2=O)CC1 (racemic; 17) |
| 29 nM | 45 nM | – | – | – | O=C(N[C@@H]1CC[C@@H](c2ccccc2)CN(CC2CC2)C1=O)N1CCC(n2nc(-c3ccccc3)[nH]c2=O)CC1 |
| – | – | – | – | 46% | O=C(N[C@@H]1CCCN(Cc2ccccc2)C1=O)N1CCC(N2Cc3ccccc3NC2=O)CC1 |
| – | – | – | – | 63% | O=C(N[C@@H]1CCN(Cc2ccccc2)C1=O)N1CCC(N2Cc3ccccc3NC2=O)CC1 |
